The numbers were not newly measured in patent publication US20100221818A1, “Device for the extemporaneous preparation of active preparations” (ALAXIA, priority 2009, published 2010), which cites them from elsewhere.

The conditions of the series: in the absence of peroxidase and/or of hydrogen peroxide.

Regarding `N#CSO` [hypothiocyanite], the half-life result is listed as “approximately 24 hours”.
